Data published in the supplement of paper PMC10307832.

Columns and labels:
Assay in all cases: relative viability (nuclei count vs DMSO), 5 days (fraction); higher = more cells survive
IDH-C35 + AZD7762 = compound: Cc1ccccc1C(C(=O)NC1CCCCC1)N(C(=O)Cn1ccnc1C)c1cccc(F)c1 [IDH-C35] + NC(=O)Nc1cc(-c2cccc(F)c2)sc1C(=O)N[C@H]1CCCNC1 [AZD7762] (partner 0.2 µM)
In short: (§1)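 Lung cancer cell lines, seeded in 1536-well plates, were treated the following day by pin tool with a single drug or with five library-drug doses (not always all listed) in √10 steps on top of a fixed anchor-drug dose. Cells were fixed and nuclei stained in one step after 5 days, and nuclei were counted. Relative viability is the nuclei count for treated wells divided by that for vehicle wells, reported as medians of duplicate plates.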

[1] = compound: CC1=C(C(=NN1)C)CC2=C(C3=C(S2)N(C(=O)N(C3=O)C)CC(C)C)C(=O)N4C[C@@H](CO4)O + CS(=O)(=O)N1CCN(Cc2cc3nc(-c4cccc5[nH]ncc45)nc(N4CCOCC4)c3s2)CC1 [Pictilisib] (partner 1 µM)
In short: as §1

IDH-C35 + OSI-027 = compound: Cc1ccccc1C(C(=O)NC1CCCCC1)N(C(=O)Cn1ccnc1C)c1cccc(F)c1 [IDH-C35] + COc1cccc2cc(-c3nc([C@H]4CC[C@H](C(=O)O)CC4)n4ncnc(N)c34)[nH]c12 [OSI-027] (partner 0.5 µM)
In short: as §1

[2] = compound: CC1=C(C(=NN1)C)CC2=C(C3=C(S2)N(C(=O)N(C3=O)C)CC(C)C)C(=O)N4C[C@@H](CO4)O + CCNC(=O)c1noc(-c2cc(C(C)C)c(O)cc2O)c1-c1ccc(CN2CCOCC2)cc1 [Luminespib] (partner 0.01 µM)
In short: as §1

Cell Line | relative viability (IDH-C35 + AZD7762; first compound 0.08 µM) | relative viability (IDH-C35 + AZD7762; first compound 0.253 µM) | relative viability (IDH-C35 + AZD7762; first compound 0.8 µM) | relative viability (IDH-C35 + AZD7762; first compound 2.53 µM) | relative viability (IDH-C35 + AZD7762; first compound 8 µM) | relative viability ([1]; first compound 0.0025 µM) | relative viability ([1]; first compound 0.007906 µM) | relative viability ([1]; first compound 0.025 µM) | relative viability ([1]; first compound 0.07906 µM) | relative viability ([1]; first compound 0.25 µM) | relative viability (IDH-C35 + OSI-027; first compound 0.08 µM) | relative viability (IDH-C35 + OSI-027; first compound 0.253 µM) | relative viability (IDH-C35 + OSI-027; first compound 0.8 µM) | relative viability (IDH-C35 + OSI-027; first compound 2.53 µM) | relative viability (IDH-C35 + OSI-027; first compound 8 µM) | relative viability ([2]; first compound 0.0025 µM) | relative viability ([2]; first compound 0.007906 µM) | relative viability ([2]; first compound 0.025 µM) | relative viability ([2]; first compound 0.07906 µM) | relative viability ([2]; first compound 0.25 µM)
NCI-H2170 | 1.04 | 0.919 | 0.899 | 0.786 | 0.757 | 0.228 | 0.293 | 0.298 | 0.341 | 0.297 | 0.669 | 0.661 | 0.739 | 0.71 | 0.676 | 0.607 | 0.79 | 0.753 | 0.725 | 0.793
NCI-H2347 | 0.781 | 0.799 | 0.884 | 0.718 | 0.658 | 0.905 | 0.909 | 0.507 | 0.836 | 0.547 | 0.467 | 0.48 | 0.477 | 0.324 | 0.369 | 0.563 | 0.371 | 0.447 | 0.362 | 0.246
NCI-H2405 | 0.857 | 0.771 | 0.815 | 0.913 | 0.768 | 0.459 | 0.422 |  | 0.432 | 0.476 | 0.651 | 0.651 | 0.622 | 0.567 | 0.621 | 0.778 | 0.849 |  | 0.706 | 0.684
NCI-H3122 | 1.02 | 0.996 | 1.02 | 0.987 | 1.03 | 0.644 | 0.618 | 0.642 | 0.606 | 0.587 | 1.03 | 1.04 | 0.929 | 0.917 | 0.948 | 0.088 | 0.101 | 0.0902 | 0.0646 | 0.11
PC-3 [JPC-3] | 0.75 | 0.867 | 0.86 | 0.844 | 0.78 | 0.896 | 0.866 | 0.732 | 0.797 | 0.763 | 0.767 | 0.74 | 0.747 | 0.809 | 0.747 | 0.801 | 0.601 | 0.699 | 0.773 | 0.786
PC-14 | 0.339 | 0.427 | 0.32 | 0.302 | 0.387 | 0.737 | 1.01 | 0.805 | 0.767 | 0.842 | 0.956 | 0.798 | 0.755 | 0.837 | 0.711 | 0.119 | 0.179 | 0.286 | 0.276 | 0.196
RERF-LC-KJ | 1.03 | 1.03 | 0.982 | 0.794 | 1.01 | 0.623 | 0.527 | 0.557 | 0.518 | 0.587 | 0.562 | 0.631 | 0.643 | 0.614 | 0.597 | 1.25 | 1.36 | 1.22 | 1.16 | 1.32
